Here are results for 36 compounds from patent publication US20240174647A1 (NEURON23, INC., priority 2022, published 2024).

The structures appear in SMILES notation. Some results are limits rather than exact numbers.

In this test the target is wt human LRRK2, catalytic site (Homo sapiens (Human), UniProt Q5S007). Nature of the test: TR-FRET LanthaScreen Tb Kinase Activity Assay (LRRK2 kinase inhibition). The test is classed as biochemical. Conditions: 2 nM wt human LRRK2, 400 nM fluorescein-ERM (LRRKtide) peptide, 38 μM ATP, 120 minutes at room temperature. How it is done: The compounds in Table 1 were tested for their inhibitory effect on LRRK2 kinase according to the following procedures.
The protocol for basic TR-FRET LanthaScreen Tb Kinase Activity Assay inhibitor studies were as follows. LanthaScreen Kinase Activity Assays (ThermoFisher/USA) to evaluate inhibitors were performed by addition of 100 nL of test compound in corresponding DMSO dilutions/5 μL of kinase/fluorescein-ERM(LRRKtide) peptide mixture, 5 μL of ATP into 384 well small volume plates. After incubation for 120 minutes at room temperature, the detection reagents containing Tb-anti-pLRRKtide antibody were added to monitor phosphrylation level of peptide. Then, after 60 min minutes incubation at room temperature plates were read in Envision. Data analysis of emission ratios was according to LanthaScreen Tb Kinase Activity Assay protocol.
Kinase and assay components were adjusted to final concentrations according to the kit protocol. For LRRK2: 2 nM wt human LRRK2, catalytic site, catalytic site (ThermoFisher/USA), 400 nM peptide, 38 μM ATP in 1× Kinase Buffer A.
Basic protocol for TR-FRET LanthaScreen Tb Kinase Activity Assay inhibitor studies involved two steps: • Enzymatic step: Addition of 100 nL of test compound in corresponding DMSO dilutions, 5 μL of kinase/substrate mixture, 5 μL of ATP into 384 well small volume plates. Incubation for 120 minutes at room temperature. • Detection step: Addition of 10 μL EDTA & antibody, read plate after 60 minutes. Data analysis of emission ratios according to KinEASE assay protocol.
Kinase and assay components were adjusted to final concentrations according to the kit protocol.
In the table below, activity is provided as follows: +++=IC50 less than 50 nM; ++=IC50 between 50 nM and 200 nM; +=IC50>=200 nM
For orientation: TR-FRET usually uses a lanthanide donor and a delayed reading to cut background.

wt human LRRK2, catalytic site, sequence (Q5S007 1879-2138): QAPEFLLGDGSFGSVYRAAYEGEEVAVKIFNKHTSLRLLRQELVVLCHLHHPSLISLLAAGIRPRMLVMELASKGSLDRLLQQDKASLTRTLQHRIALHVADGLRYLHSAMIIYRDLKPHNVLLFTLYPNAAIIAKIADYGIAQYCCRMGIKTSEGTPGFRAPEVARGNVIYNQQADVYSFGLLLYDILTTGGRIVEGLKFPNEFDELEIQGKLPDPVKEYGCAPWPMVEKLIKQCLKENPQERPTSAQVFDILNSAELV

Broadly, the IC50 is the concentration needed to halve the response being measured. A low value points to greater potency in that assay. As to `CNc1nc(Nc2ccc3cn[nH]c3c2)ncc1C(F)(F)F` [Example 1, N2-(1H-indazol-6-yl)-N4-methyl-5-(trifluoromethyl)pyrimidine-2,4-diamine], the IC50 is less than 0.05 µM.

With `CNc1nc(Nc2cc3[nH]ncc3cc2C)ncc1C(F)(F)F` [Example 2], the IC50 was less than 0.05 µM.

In the case of `CNc1nc(Nc2cc3[nH]ncc3cc2OC)ncc1C(F)(F)F` [Example 3, N2-(5-methoxy-1H-indazol-6-yl)-N4-methyl-5-(trifluoromethyl)pyrimidine-2,4-diamine], the half-inhibitory concentration (IC50) is less than 0.05 µM.

`CNc1nc(Nc2ccc3cn[nH]c3c2OC)ncc1C(F)(F)F` [Example 4, N2-(7-methoxy-1H-indazol-6-yl)-N4-methyl-5-(trifluoromethyl)pyrimidine-2,4-diamine] yielded an IC50 of 0.05 to 0.2 µM.

Take `CNc1nc(Nc2ccc3cn[nH]c3c2C)ncc1C(F)(F)F` [Example 5, N4-methyl-N2-(7-methyl-1H-indazol-6-yl)-5-(trifluoromethyl)pyrimidine-2,4-diamine]: the IC50 is less than 0.05 µM.

As for `CNc1nc(Nc2cc(F)c3cn[nH]c3c2)ncc1C(F)(F)F` [Example 6, N2-(4-fluoro-1H-indazol-6-yl)-N4-methyl-5-(trifluoromethyl)pyrimidine-2,4-diamine], the IC50 is less than 0.05 µM.

Take `CNc1nc(Nc2ccc3c(Br)n[nH]c3c2)ncc1C(F)(F)F` [Example 7, N2-(3-bromo-1H-indazol-6-yl)-N4-methyl-5-(trifluoromethyl)pyrimidine-2,4-diamine]: the 50% inhibitory concentration (IC50) is less than 0.05 µM.

In turn, `CNc1nc(Nc2ccc3c(C#N)n[nH]c3c2)ncc1C(F)(F)F` [Example 8, 6-((4-(methylamino)-5-(trifluoromethyl)pyrimidin-2-yl)amino)-1H-indazole-3-carbonitrile] gave a concentration for half-maximal inhibition (IC50) of no less than 0.2 µM.

With `CNc1nc(Nc2ccc3c(C(=O)N4CCOCC4)n[nH]c3c2)ncc1C(F)(F)F` [Example 9, (6-((4-(methylamino)-5-(trifluoromethyl)pyrimidin-2-yl)amino)-1H-indazol-3-yl)(morpholino)methanone], the IC50 was less than 0.05 µM.

Regarding `CNc1nc(Nc2ccc3c(Br)nn(C)c3c2)ncc1C(F)(F)F` [Example 10, N^2-(3-bromo-1-methyl-1H-indazol-6-yl)-N^4-methyl-5-(trifluoromethyl) pyrimidine-2,4-diamine], the IC50 is less than 0.05 µM.

`CNc1nc(Nc2ccc3c(C#N)nn(C)c3c2)ncc1C(F)(F)F` [Example 11, 1-methyl-6-((4-(methylamino)-5-(trifluoromethyl)pyrimidin-2-yl)amino)-1H-indazole-3-carbonitrile] gave a concentration for half-maximal inhibition (IC50) of less than 0.05 µM.

Compound `CNc1nc(Nc2ccc3cnn(C)c3c2)ncc1C(F)(F)F` [Example 12, N4-methyl-N2-(1-methyl-1H-indazol-6-yl)-5-(trifluoromethyl)pyrimidine-2,4-diamine] displayed an IC50 of less than 0.05 µM.

With `CNc1nc(Nc2cc3c(cnn3C)cc2C)ncc1C(F)(F)F` [Example 13, N2-(1,5-dimethyl-1H-indazol-6-yl)-N4-methyl-5-(trifluoromethyl)pyrimidine-2,4-diamine], the concentration for half-maximal inhibition (IC50) is less than 0.05 µM.

Consider `CNc1nc(Nc2ccc3cnn(C)c3c2OC)ncc1C(F)(F)F` [Example 14, N2-(7-methoxy-1-methyl-1H-indazol-6-yl)-N4-methyl-5-(trifluoromethyl)pyrimidine-2,4-diamine], for which the half-maximal inhibitory concentration (IC50) was 0.05 to 0.2 µM.

Consider `CNc1nc(Nc2ccc3cnn(C)c3c2C)ncc1C(F)(F)F` [Example 15, N2-(1,7-dimethyl-1H-indazol-6-yl)-N4-methyl-S-(trifluoromethyl)pyrimidine-2,4-diamine], for which the half-maximal inhibitory concentration (IC50) fell in the range of 0.05 to 0.2 µM.

Consider `CNc1nc(Nc2ccc3cnn(CC#N)c3c2)ncc1C(F)(F)F` [Example 16, 2-(6-((4-(methylamino)-5-(trifluoromethyl)pyrimidin-2-yl)amino)-1H-indazol-1-yl)acetonitrile], for which the half-inhibitory concentration (IC50) is less than 0.05 µM.

Compound `CNc1nc(Nc2ccc3cn(C)nc3c2)ncc1C(F)(F)F` [Example 17, N4-methyl-N2-(2-methyl-2H-indazol-6-yl)-5-(trifluoromethyl)pyrimidine-2,4-diamine] registered an IC50 of less than 0.05 µM.

`CNc1nc(Nc2cc3nn(C)cc3cc2C)ncc1C(F)(F)F` [Example 18, N2-(2,5-dimethyl-2H-indazol-6-yl)-N4-methyl-5-(trifluoromethyl)pyrimidine-2,4-diamine] registered an IC50 of 0.05 to 0.2 µM.

Take `CNc1nc(Nc2ccc3cn(C)nc3c2C)ncc1C(F)(F)F` [Example 19, N2-(2,7-dimethyl-2H-indazol-6-yl)-N4-methyl-5-(trifluoromethyl)pyrimidine-2,4-diamine]: the half-maximal inhibitory concentration (IC50) is less than 0.05 µM.

As for `CNc1nc(Nc2ccc3cn(C)nc3c2OC)ncc1C(F)(F)F` [Example 20, N2-(7-methoxy-2-methyl-2H-indazol-6-yl)-N4-methyl-5-(trifluoromethyl)pyrimidine-2,4-diamine], the half-inhibitory concentration (IC50) is less than 0.05 µM.

For `CNc1nc(Nc2cccc3[nH]ncc23)ncc1C(F)(F)F` [Example 21, N2-(1H-indazol-4-yl)-N4-methyl-5-(trifluoromethyl)pyrimidine-2,4-diamine], the IC50 is less than 0.05 µM.

Consider `CNc1nc(Nc2c(F)ccc3[nH]ncc23)ncc1C(F)(F)F` [Example 22, N2-(5-fluoro-1H-indazol-4-yl)-N4-methyl-5-(trifluoromethyl)pyrimidine-2,4-diamine], for which the half-inhibitory concentration (IC50) is 0.05 to 0.2 µM.

With `CNc1nc(Nc2c(C)ccc3[nH]ncc23)ncc1C(F)(F)F` [Example 23, N4-methyl-N2-(5-methyl-1H-indazol-4-yl)-5-(trifluoromethyl)pyrimidine-2,4-diamine], the IC50 lay within 0.05 to 0.2 µM.

On to `CNc1nc(Nc2cc(C)cc3[nH]ncc23)ncc1C(F)(F)F` [Example 24, N4-methyl-N2-(6-methyl-1H-indazol-4-yl)-5-(trifluoromethyl)pyrimidine-2,4-diamine], for which the 50% inhibitory concentration (IC50) is less than 0.05 µM.

Take `CNc1nc(Nc2cc(F)cc3[nH]ncc23)ncc1C(F)(F)F` [Example 25, N2-(6-fluoro-1H-indazol-4-yl)-N4-methyl-5-(trifluoromethyl)pyrimidine-2,4-diamine]: the concentration for half-maximal inhibition (IC50) is less than 0.05 µM.

`CNc1nc(Nc2ccc(C)c3[nH]ncc23)ncc1C(F)(F)F` [Example 26, N4-methyl-N2-(7-methyl-1H-indazol-4-yl)-5-(trifluoromethyl)pyrimidine-2,4-diamine] registered a 50% inhibitory concentration (IC50) of less than 0.05 µM.

In turn, `CNc1nc(Nc2ccc(OC)c3[nH]ncc23)ncc1C(F)(F)F` [Example 28, N2-(7-methoxy-1H-indazol-4-yl)-N4-methyl-5-(trifluoromethyl)pyrimidine-2,4-diamine] returned an IC50 of less than 0.05 µM.

On to `CNc1nc(Nc2cccc3c2cnn3C)ncc1C(F)(F)F` [Example 29, N4-methyl-N2-(1-methyl-1H-indazol-4-yl)-5-(trifluoromethyl)pyrimidine-2,4-diamine], for which the IC50 is less than 0.05 µM.

In turn, `CNc1nc(Nc2cccc3c2cnn3CC#N)ncc1C(F)(F)F` [Example 30, 2-(4-((4-(methylamino)-5-(trifluoromethyl)pyrimidin-2-yl)amino)-1H-indazol-1-yl)acetonitrile] registered an IC50 of less than 0.05 µM.

In turn, `CNc1nc(Nc2cccc3c2cnn3C(C)(C)C#N)ncc1C(F)(F)F` [Example 31, 2-methyl-2-(4-((4-(methylamino)-5-(trifluoromethyl)pyrimidin-2-yl)amino)-1H-indazol-1-yl)propanenitrile] showed a half-inhibitory concentration (IC50) of less than 0.05 µM.

Consider `CNc1nc(Nc2cccc3c2cnn3C(=O)N2CCOCC2)ncc1C(F)(F)F` [Example 32, (4-((4-(methylamino)-5-(trifluoromethyl)pyrimidin-2-yl)amino)-1H-indazol-1-yl)(morpholino)methanone], for which the concentration for half-maximal inhibition (IC50) is less than 0.05 µM.

As to `CNc1nc(Nc2cccc3c2cnn3S(=O)(=O)C2CC2)ncc1C(F)(F)F` [Example 33, N2-(1-(cyclopropylsulfonyl)-1H-indazol-4-yl)-N4-methyl-5-(trifluoromethyl)pyrimidine-2,4-diamine], the concentration for half-maximal inhibition (IC50) is less than 0.05 µM.

In turn, `CNc1nc(Nc2cccc3nn(C)cc23)ncc1C(F)(F)F` [Example 34, N4-methyl-N2-(2-methyl-2H-indazol-4-yl)-5-(trifluoromethyl)pyrimidine-2,4-diamine] came in with an IC50 of less than 0.05 µM.

`CNc1nc(Nc2ccc(OC)c3nn(C)cc23)ncc1C(F)(F)F` [Example 35, N2-(7-methoxy-2-methyl-2H-indazol-4-yl)-N4-methyl-5-(trifluoromethyl) pyrimidine-2,4-diamine] gave a half-maximal inhibitory concentration (IC50) of less than 0.05 µM.

In the case of `CNc1nc(Nc2c(C)ccc3c2cnn3C)ncc1C(F)(F)F` [Example 36, N2-(1,5-dimethyl-1H-indazol-4-yl)-N4-methyl-5-(trifluoromethyl)pyrimidine-2,4-diamine], the IC50 was 0.05 to 0.2 µM.

Compound `CNc1nc(Nc2c(OC)ccc3c2cnn3C)ncc1C(F)(F)F` [Example 37, N2-(5-methoxy-1-methyl-1H-indazol-4-yl)-N4-methyl-5-(trifluoromethyl) pyrimidine-2,4-diamine] came in with an IC50 of less than 0.05 µM.
